Key:
[1] = target: T1, human VAP-1 (SSAO) (Homo sapiens, UniProt Q16853); assay: VAP-1 Inhibition Assay (benzylamine substrate, HRP-coupled hydrogen peroxide or 14C benzaldehyde detection); format: biochemical; details: purified recombinant human VAP-1 (SSAO), room temperature
T1 construct: made in house
T1 sequence (Q16853 29-763 limits assumed): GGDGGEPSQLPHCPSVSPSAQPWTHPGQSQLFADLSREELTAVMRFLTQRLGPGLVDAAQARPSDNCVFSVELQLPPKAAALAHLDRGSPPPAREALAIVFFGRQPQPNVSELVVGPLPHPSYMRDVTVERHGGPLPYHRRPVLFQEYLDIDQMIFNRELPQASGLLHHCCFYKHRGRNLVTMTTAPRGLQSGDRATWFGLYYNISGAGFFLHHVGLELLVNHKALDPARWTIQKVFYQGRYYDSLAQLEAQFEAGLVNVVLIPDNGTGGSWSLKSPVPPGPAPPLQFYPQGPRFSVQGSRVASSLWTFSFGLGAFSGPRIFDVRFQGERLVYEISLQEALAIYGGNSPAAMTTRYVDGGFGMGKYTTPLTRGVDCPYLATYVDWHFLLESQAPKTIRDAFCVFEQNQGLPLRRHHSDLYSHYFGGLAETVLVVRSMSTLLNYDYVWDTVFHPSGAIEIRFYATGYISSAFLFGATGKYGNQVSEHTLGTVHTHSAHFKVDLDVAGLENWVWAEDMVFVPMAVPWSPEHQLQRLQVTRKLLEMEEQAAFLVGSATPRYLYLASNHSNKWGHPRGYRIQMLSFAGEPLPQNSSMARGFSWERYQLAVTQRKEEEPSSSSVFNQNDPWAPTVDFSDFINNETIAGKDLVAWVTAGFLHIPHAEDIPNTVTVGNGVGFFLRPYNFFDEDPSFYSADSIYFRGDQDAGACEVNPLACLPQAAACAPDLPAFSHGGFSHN
Protocol: This assay is performed at room temperature with purified recombinantly expressed human VAP-1 (SSAO). Enzyme was prepared essentially as described in Ohman et al. (Protein Expression and Purification 46 (2006) 321-331). The enzyme activity is assayed with benzylamine as substrate by measuring either benzaldehyde production, using 14C-labeled substrate, or by utilizing the production of hydrogen peroxide in a horseradish peroxidise (HRP) coupled reaction. Briefly, test compounds are dissolved in dimethyl sulfoxide (DMSO) to a concentration of 10 mM. […]
Hydrogen peroxide detection: In a horseradish peroxidise (HRP) coupled reaction, hydrogen peroxide oxidation of 10-acetyl-3,7-dihydroxyphenoxazine produces resorufin, which is a highly fluorescent compound (Zhout and Panchuk-Voloshina. Analytical Biochemistry 253 (1997) 169-174; Amplex® Red Hydrogen Peroxide/peroxidise Assay kit, Invitrogen A22188). […] Benzylarnine concentration is fixed at a concentration corresponding to the Michaelis constant, determined using standard procedures. Fluorescence intensity is then measured at several time points during 1-2 hours, exciting at 544 nm and reading the emission at 590 nm. […] The inhibition is measured as % decrease of the signal compared to a control without inhibitor (only diluted DMSO). […]

[2] = test system: adjuvant-induced arthritis; assay: Adjuvant-induced arthritis model, Randall Selitto assay (mechanical hyperalgesia); format: in vivo, rat; details: Lewis rats, dosed day 0 to day 28: LJP1207 30 mg/kg po qd, MTX 0.25 mg/kg ip 3 times per week; assessed day 7, 14, 18, 21, 25, 28; FIG. 2
Excerpt: Rats injected into the hindpaw with a mixture of Mycobacterium butirricum emulsified in light mineral oil develop a severe polyarthritis which shares some features in common with human rheumatoid arthritis (RA), such as swelling of the extremities, cartilage degradation, loss of joint function and lymphocyte infiltration into diseased joints. This model was originally described more than 60 years ago (Pearson et al., Arthritis and Rheumatology. 1959. 2(5), 440-459) and is still the most widely used assay to identify chemical agents having a potential therapeutic efficacy in RA. […] Furthermore, this is a well-established model for inflammatory pain, especially longer-term (i.e. chronic) inflammatory pain.
Male Lewis rats (220-230 g) were housed in propylene cages with food and water ad libitum. The light cycle was automatically controlled and the room temperature thermostatically regulated to 21±1° C. Prior to the start of the experiment animals were housed in these conditions for 6-8 days.
Rats were anaesthetized before induction of CFA and then were treated orally starting from day 0 to day 28 with LJP1207 (30 mg/kg po qd) or methotrexate (MTX, 0.25 mg/kg ip 3 times per week). Control rats received the vehicle e.g. PBS starting from day 0. […] The development of arthritis was assessed at day 7, 14, 18, 21, 25 and 28. […]

[3] = target: T2, human SSAO (Homo sapiens, UniProt Q16853); details: Salter-Cid et al., J Pharmacol Exp Ther. 2005; read-out: human SSAO, IC(50); cited from earlier work
T2 sequence (Q16853 1-763): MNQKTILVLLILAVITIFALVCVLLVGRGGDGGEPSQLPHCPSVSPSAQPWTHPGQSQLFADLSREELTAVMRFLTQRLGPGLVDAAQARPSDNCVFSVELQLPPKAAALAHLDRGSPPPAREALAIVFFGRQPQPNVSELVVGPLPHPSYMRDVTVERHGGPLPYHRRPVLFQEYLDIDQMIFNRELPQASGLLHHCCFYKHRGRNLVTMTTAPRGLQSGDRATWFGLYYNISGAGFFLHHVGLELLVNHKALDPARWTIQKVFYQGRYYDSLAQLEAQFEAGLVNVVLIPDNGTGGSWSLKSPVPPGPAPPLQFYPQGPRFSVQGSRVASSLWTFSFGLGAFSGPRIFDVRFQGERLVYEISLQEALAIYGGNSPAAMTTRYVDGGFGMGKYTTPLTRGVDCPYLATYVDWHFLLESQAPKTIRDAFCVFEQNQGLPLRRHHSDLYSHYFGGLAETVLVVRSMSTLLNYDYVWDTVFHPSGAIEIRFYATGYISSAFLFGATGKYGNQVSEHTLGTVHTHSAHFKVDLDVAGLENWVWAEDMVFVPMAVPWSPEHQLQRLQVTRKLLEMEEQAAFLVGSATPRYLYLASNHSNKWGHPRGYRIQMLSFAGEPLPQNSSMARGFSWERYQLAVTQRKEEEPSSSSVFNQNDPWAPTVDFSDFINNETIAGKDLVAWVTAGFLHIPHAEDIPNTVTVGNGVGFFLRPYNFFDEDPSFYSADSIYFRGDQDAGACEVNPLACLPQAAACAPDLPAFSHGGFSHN

IC50 [1] [nM]	SMILES	inhibition of paw withdrawal (nociceptive threshold, Randall Selitto) [2]	IC50 [3] [nM]
37	CC(C)[C@H]1c2[nH]cnc2CCN1C(=O)O[C@H]1CCOC1 [Compound 1, (3S)-Tetrahydrofuran-3-yl (4S)-4-isopropyl-1,4,6,7-tetrahydro-5H-Imidazo[4,5-c]pyridine-5-carboxylate]		
	C=C(CNN)c1ccccc1.Cl [LJP1207, N′-(2-phenyl-allyl)-hydrazine hydrochloride]	significant inhibition at day 21, 25 and 28	17
	CN(Cc1cnc2nc(N)nc(N)c2n1)c1ccc(C(=O)N[C@@H](CCC(=O)O)C(=O)O)cc1 [MTX, methotrexate]	significant inhibition starting at day 18 up to day 28	

Reference: US20200397764A1, “VAP-1 INHIBITORS FOR TREATING PAIN” (BENEVOLENTAI CAMBRIDGE LIMITED, priority 2015, published 2020)
